One assay has as its target HsIMPDH1. The note with it: read-out: HsIMPDH1 Ki; cited from earlier work.
For assay [1], the target named is T1, CpIMPDH (Cryptosporidium parvum, UniProt Q8T6T2).
T1 sequence (Q8T6T2 1-400): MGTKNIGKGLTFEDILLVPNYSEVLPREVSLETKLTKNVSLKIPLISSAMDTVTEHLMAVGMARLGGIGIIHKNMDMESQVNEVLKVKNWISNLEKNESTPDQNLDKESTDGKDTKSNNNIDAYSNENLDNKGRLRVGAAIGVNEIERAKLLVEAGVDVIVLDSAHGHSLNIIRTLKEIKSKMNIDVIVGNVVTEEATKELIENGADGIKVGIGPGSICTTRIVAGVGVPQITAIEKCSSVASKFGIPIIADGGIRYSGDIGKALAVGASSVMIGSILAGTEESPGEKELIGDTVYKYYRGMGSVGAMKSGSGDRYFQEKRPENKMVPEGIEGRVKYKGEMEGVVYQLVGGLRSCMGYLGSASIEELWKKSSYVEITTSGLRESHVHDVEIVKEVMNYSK
The note with it: read-out: CpIMPDH Ki; cited from earlier work.

Assay [2] has as its target T1, CpIMPDH. The experiment in a line: biochemical. The class given is biochemical. The note with it: for CpIMPDH inhibition, result in words: relative to parent anilide.
The target of the next assay is HsIMPDH2 (Homo sapiens, UniProt P12268). The experiment in a line: HsIMPDH2 enzyme inhibition. The class given is biochemical.
The target of the next assay is MtbIMPDH (Mycobacterium tuberculosis, UniProt P9WKI7). As to the kind of experiment: MtbIMPDH inhibition. The class given is biochemical.
The mark [3] stands for this setting: ratio of Ki,app of the two enantiomers.

Read-outs that look alike come from different tables or passages of the source.

Sequence of MtbIMPDH (P9WKI7 whole entry, looked up): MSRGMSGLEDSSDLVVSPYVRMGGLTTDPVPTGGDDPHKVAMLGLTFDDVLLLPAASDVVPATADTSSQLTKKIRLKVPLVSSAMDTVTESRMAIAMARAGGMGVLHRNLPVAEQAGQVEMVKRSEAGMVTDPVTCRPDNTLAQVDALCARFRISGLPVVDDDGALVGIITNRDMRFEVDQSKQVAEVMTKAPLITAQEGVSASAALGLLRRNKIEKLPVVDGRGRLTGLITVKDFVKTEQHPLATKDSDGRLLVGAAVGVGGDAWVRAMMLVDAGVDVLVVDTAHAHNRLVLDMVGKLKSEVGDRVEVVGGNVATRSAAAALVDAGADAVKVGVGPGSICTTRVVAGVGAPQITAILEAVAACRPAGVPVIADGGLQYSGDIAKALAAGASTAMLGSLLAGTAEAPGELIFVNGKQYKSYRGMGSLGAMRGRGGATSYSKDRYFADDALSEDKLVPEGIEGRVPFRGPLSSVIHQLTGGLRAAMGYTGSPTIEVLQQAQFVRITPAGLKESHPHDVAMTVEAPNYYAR

One may read the Ki as the dissociation constant of the complex between target and ligand, obtained from inhibition or displacement. For `COc1c(C)c2c(c(O)c1C/C=C(\C)CCC(=O)O)C(=O)OC2` [MPA, Mycophenolic acid], the Ki at HsIMPDH1 was 33 nM; at CpIMPDH [1], 9300 nM. The compound `COc1c(C)c2c(c(O)c1C/C=C(\C)CCC(=O)Nc1ccc(C(F)(F)F)cc1)C(=O)OC2` [Compound 14] had a Ki at CpIMPDH [2] of 151 nM.

As to `COc1c(C)c2c(c(O)c1C[C@H]1C[C@]1(C)CCC(=O)Nc1ccc(Cl)c(C(F)(F)F)c1)C(=O)OC2` [Compound 31a], the Ki at HsIMPDH2 is 1400 nM; on CpIMPDH [2], 570 nM.

Turning to `COc1c(C)c2c(c(O)c1C/C=C(\C)CCC(=O)Nc1ccc(F)cc1)C(=O)OC2` [Compound 13], on CpIMPDH [2], the inhibition constant Ki worked out at 180 nM. As to `COc1c(C)c2c(c(O)c1CC(=O)Nc1ccc(Cl)cc1)C(=O)OC2` [Compound 44], the values for the inhibition constant Ki on HsIMPDH2 and on CpIMPDH [2] were 800 nM and 2800 nM, respectively.

Regarding `COc1c(C)c2c(c(O)c1CCCC(=O)Nc1ccc(Cl)cc1)C(=O)OC2` [Compound 42b], the results for the Ki on HsIMPDH2 and on CpIMPDH [2] were 290 nM and 450 nM, respectively. On the same counts, the results for `COc1c(C)c2c(c(O)c1CCOCC(=O)Nc1ccc(Cl)cc1)C(=O)OC2` [Compound 38] are 870 nM and 405 nM.

As for `COc1c(C)c2c(c(O)c1C/C=C(\C)CCC(=O)N(C)c1ccc(Cl)cc1)C(=O)OC2` [Compound 16], on CpIMPDH [2], the “CpIMPDH inhibition, result in words” value is on record as “loss of activity”. Still for that read-out and setting: the entry for `COc1c(C)c2c(c(O)c1C/C=C(\C)CCC(=O)Nc1cccc(Cl)c1Cl)C(=O)OC2` [Compound 11] is “loss of CpIMPDH inhibitory activity”. `COc1c(C)c2c(c(O)c1C/C=C(\C)CCC(=O)Nc1ccc(Cl)c(C(F)(F)F)c1)C(=O)OC2` [Compound 10] showed a Ki at MtbIMPDH of 60 nM.

On to `COc1c(C)c2c(c(O)c1C[C@@H]1C[C@@]1(C)CCC(=O)Nc1ccc(Cl)c(C(F)(F)F)c1)C(=O)OC2` [Compound 31b], for which the Ki worked out at 460 nM at HsIMPDH2 and 66 nM on CpIMPDH [2]. Moreover, the “eudysmic ratio of 31b and 31a for HsIMPDH inhibition” value on HsIMPDH2 (setting [3]) is 3.1. For the same compound, the “eudysmic ratio of 31b and 31a for CpIMPDH inhibition” value at CpIMPDH [2] (setting [3]) amounted to 8.6. For the compound `COc1c(C)c2c(c(O)c1C/C=C/C(=O)Nc1ccc(Cl)cc1)C(=O)OC2` [Compound 42a], the Ki on HsIMPDH2 is 550 nM; at CpIMPDH [2] it was 480 nM.

These data come from article PMC9511823 (Bioorganic & medicinal chemistry letters, 2020).
